Measurements published in patent publication US20010053796A1, “Delta-aminolevulinic acid for prevention and treatment of infection microorganisms and parasite” (priority 2000, published 2001).
≈ marks a conversion by molar mass, not a printed value.

What was measured:
Staphylococcus sp. [1] = test: Prevention effect for artificial infection (abdominal injection of bacteria); type: in vivo, Sebastes schlegeli; settings: for Mortality during Cultivation: dead of 20 fish
Protocol: The water temperature was maintained at 20° C. (±2° C. ) throughout the experiment. […]
Bastardhalibut and Sebastes schlegeli were infected by Staphylococcus sp. by abdominal injection with the same method of fish breeding δ-aminolevulinic acid treatment and artificial infection carried out in Experiment 1 and 2. Each experimental fish was moved to fish tanks for monitoring and monitored for mortality according to infection for 2 weeks.

Edwardsiella tarda [2] = test: MIC assay by flat drug disc method; type: cell-based; settings: prepared by the inventors
Protocol: (§1) Pathogenic index bacteria used in this experiment are Edwardsiella tard, Streptococcus sp., Staphylococcus sp., Staphylococcus epidermidis, Pseudomonas sp., Vibrio anguillarum which are collected from the marine fish farm nearby Yeosu. In solid culture, they were cultured in TSA (tryptic soy agar) supplemented with 0.2% NaCl flat media and in liquid culture, they were prepared by culturing in BHI broth for 24 hrs and setting the O.D. value as 1.0. δ-aminolevulinic acid used in this experiment were one on the market (Sigma) and one formulated by inventors of the present invention (Korean patent application No. 1998-41898). Each 0.167 g δ-aminolevulinic acid were dissolved in 1.0 mL sterilized distilled water was used as undiluted solution. 1.0 M δ-aminolevulinic acid was 2-fold diluted with BHI broth by stages up to 64-fold and prepared for test solution to examine pathogenic bacteria proliferation-prohibiting effect. […] In control group, instead of δ-aminolevulinic acid, BHI broth bacteria suspension were mixed with (1:1) and then observed with the same method above. MIC assay by δ-aminolevulinic acid for major pathogenic bacteria of marine cultivating fishes, Edwardsiella tard, Streptococcus sp., Staphylococcus sp., Staphylococcus epidermidis, Pseudomonas sp., Vibrio anguillarum was carried out by flat drug disc method. 100 μL of each bacteria in a culture solution was mixed with fixed amount of top agar and coated to TSA agar. 1.0 M δ-aminolevulinic acid solution was diluted by 2 folds in PBS and 10 μL of each dilution were absorbed to sterilized disc. After incubation at 23˜25° C. for 2˜3 days, antibacterial effect was indicated by measuring the size (mm) of clear zone. In control group, PBS was absorbed into disc instead of δ-aminolevulinic acid dilution solution with the same amount and observed. From the result of this experiment using δ-aminolevulinic acid on the market, proliferation-inhibiting effects of pathogenic bacteria according to δ-aminolevulinic acid concentration are shown in Table 2a (Edwardsiella tard) and Table 2b (Streptococcus sp.). Below 1/32 fold (31 mM) of δ-aminolevulinic acid dilution rate, proliferation of both bacteria was inhibited. […] The experimental result of δ-aminolevulinic acid prepared by the inventors has shown in Table 3 and no difference in effects from δ-aminolevulinic acid on the market.

Vibrio anguillarum = test: MIC assay by flat drug disc method; type: cell-based; settings: prepared by the inventors
Protocol: as §1

Staphylococcus sp. [3] = test: MIC assay by flat drug disc method; type: cell-based; settings: Staphylococcus sp. (second of two lines); prepared by the inventors
Protocol: as §1

[4] = tested on: Staphylococcus epidermidis; test: MIC assay by flat drug disc method; type: cell-based; settings: prepared by the inventors
Protocol: as §1

Pseudomonas sp. = test: MIC assay by flat drug disc method; type: cell-based; settings: prepared by the inventors
Protocol: as §1

Streptococcus sp. = test: MIC assay by flat drug disc method; type: cell-based; settings: line printed Staphylococcus sp. (first of two), prepared by the inventors
Protocol: as §1

Edwardsiella tarda [5] = test: Prevention effect for artificial infection (abdominal injection of bacteria); type: in vivo, Sebastes schlegeli; settings: for Mortality during Cultivation: dead of 20 fish
Protocol: The water temperature was maintained at 20° C. (±2° C. ) throughout the experiment.
As the same method of above Experiment 1, fishes of both control group and experiment group were prepared and artificially infected by direct abdominal injection of Edwardsiella tarda 10^5 CFU per 1 fish. Each experimental fish was moved to fish tanks for monitoring and monitored for mortality according to infection for 2 weeks and viability after 2 weeks.

Edwardsiella tarda [6] = test: Treatment of Edwardsiella bacteria-infected fish in a fish farm; type: in vivo, flatfish
From the text: Infected fish cultivated in the terrestrial fish tank were found in a fish farm, where flatfish (mean weight 11 g) were dying by spontaneous attack. The main source of infection was Edwardsiella tardaa. About 30˜40% of cumulative mortality per cultivating tank has shown after 5 days since the mortality started. […] On the first day, 0.1 ppm δ-aminolevulinic acid was digestion-treated in two tanks for 2 hrs and on the second and third day, 0.01 ppm δ-aminolevulinic acid was digested for 2 hrs. They were then observed, during the water was exchanged. δ-aminolevulinic acid digestion-treated tanks (about 3,000 fish) has maintained 40% cumulative mortality for 1 week after treatment, while δ-aminolevulinic acid non-treated tanks has shown 60% cumulative mortality and progressive disease was observed, more reporting 20% cumulative mortality thereafter.

NCC(=O)CCC(=O)O [δ-aminolevulinic acid]
Viability (Staphylococcus sp. [1]; orally, 0.1 ppm in feed): 50%
Mortality during Cultivation (Staphylococcus sp. [1]; orally, 0.1 ppm in feed): 10
Viability (Staphylococcus sp. [1]; orally, 1.0 ppm in feed): 55%
Mortality during Cultivation (Staphylococcus sp. [1]; orally, 1.0 ppm in feed): 9
Viability (Staphylococcus sp. [1]; orally, 10 ppm in feed): 90%
Mortality during Cultivation (Staphylococcus sp. [1]; orally, 10 ppm in feed): 2
Viability (Staphylococcus sp. [1]; orally, 100 ppm in feed): 90%
Mortality during Cultivation (Staphylococcus sp. [1]; orally, 100 ppm in feed): 2
Viability (Staphylococcus sp. [1]; to fish tanks, 0.01 ppm): 60%
Mortality during Cultivation (Staphylococcus sp. [1]; to fish tanks, 0.01 ppm): 8
Viability (Staphylococcus sp. [1]; to fish tanks, 0.1 ppm): 65%
Mortality during Cultivation (Staphylococcus sp. [1]; to fish tanks, 0.1 ppm): 7
Viability (Staphylococcus sp. [1]; to fish tanks, 1.0 ppm): 95%
Mortality during Cultivation (Staphylococcus sp. [1]; to fish tanks, 1.0 ppm): 1
Viability (Staphylococcus sp. [1]; to fish tanks, 10 ppm): 90%
Mortality during Cultivation (Staphylococcus sp. [1]; to fish tanks, 10 ppm): 2
MIC (Edwardsiella tarda [2]): 56 µg/mL (≈ 427 µM)
MIC (Vibrio anguillarum): 29.9 µg/mL (≈ 228 µM)
MIC (Staphylococcus sp. [3]): 59.6 µg/mL (≈ 455 µM)
MIC [4]: 62 µg/mL (≈ 473 µM)
MIC (Pseudomonas sp.): 42.2 µg/mL (≈ 322 µM)
MIC (Streptococcus sp.): 72.9 µg/mL (≈ 556 µM)
Viability (Edwardsiella tarda [5]; orally, 0.01 ppm in feed): 70%
Mortality during Cultivation (Edwardsiella tarda [5]; orally, 0.01 ppm in feed): 6
Viability (Edwardsiella tarda [5]; orally, 1.0 ppm in feed): 80%
Mortality during Cultivation (Edwardsiella tarda [5]; orally, 1.0 ppm in feed): 4
Viability (Edwardsiella tarda [5]; orally, 10 ppm in feed): 85%
Mortality during Cultivation (Edwardsiella tarda [5]; orally, 10 ppm in feed): 3
Viability (Edwardsiella tarda [5]; orally, 100 ppm in feed): 90%
Mortality during Cultivation (Edwardsiella tarda [5]; orally, 100 ppm in feed): 2
Viability (Edwardsiella tarda [5]; to fish tanks, 0.01 ppm): 65%
Mortality during Cultivation (Edwardsiella tarda [5]; to fish tanks, 0.01 ppm): 7
Viability (Edwardsiella tarda [5]; to fish tanks, 0.1 ppm): 75%
Mortality during Cultivation (Edwardsiella tarda [5]; to fish tanks, 0.1 ppm): 5
Viability (Edwardsiella tarda [5]; to fish tanks, 1.0 ppm): 90%
Mortality during Cultivation (Edwardsiella tarda [5]; to fish tanks, 1.0 ppm): 2
Viability (Edwardsiella tarda [5]; to fish tanks, 10 ppm): 85%
Mortality during Cultivation (Edwardsiella tarda [5]; to fish tanks, 10 ppm): 3
Cumulative mortality (Edwardsiella tarda [6]; digestion 0.1 ppm day 1, 0.01 ppm days 2 and 3, 2 hrs, maintained for 1 week after treatment): 40%
Cumulative mortality (Edwardsiella tarda [6]; digestion-treated groups in progressive disease, end result (non-treated 80%)): about 40%
